Values quoted from earlier work as cited in US20240374563A1, “ANTICHOLINERGIC COMPOUNDS FOR USE IN TREATING NEUROMUSCULAR DISORDERS” (UNIVERSITY OF MONTRÉAL, priority 2022, published 2024).

Test system: ALS patients
Settings: cited from earlier work

SMILES: Nc1nc2ccc(OC(F)(F)F)cc2s1 [Riluzole]
- share of ALS patients who benefit: 20%
